Where two headings read alike, the source gives them in different places.
Columns and labels:
NAMPT = NAMPT (Homo sapiens (Human), UniProt P43490); assay: Assay 1: Biochemical Inhibition Assay (NAMPT enzymatic reaction, NMN quantified by mass spectrometry); conditions: read-out: Biochemical (IC50);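 further: recombinant His-tagged human NAMPT preincubated with compound 15 min, then reacted 30 min at rt with 1 µM NAM, 100 µM PRPP, 2.5 mM ATP, NMN product read by RapidFire MS, normalized to L-Cystathionine internal standard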
A2780 cells = assay: Assay 2: In-Vitro Cell Proliferation Assay (A2780 cells, SRB readout, 72 hours); format: cell-based; conditions: A2780 cells, 72 hours, SRB, read-out: Cell Proliferation (IC50);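 further: viable cells counted via sulforhodamine B staining, absorbance at 570 nm, after 72 h exposure at 37 °C, DMSO 0.1% as control, media-only background subtracted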

Sequence of NAMPT (P43490 whole entry): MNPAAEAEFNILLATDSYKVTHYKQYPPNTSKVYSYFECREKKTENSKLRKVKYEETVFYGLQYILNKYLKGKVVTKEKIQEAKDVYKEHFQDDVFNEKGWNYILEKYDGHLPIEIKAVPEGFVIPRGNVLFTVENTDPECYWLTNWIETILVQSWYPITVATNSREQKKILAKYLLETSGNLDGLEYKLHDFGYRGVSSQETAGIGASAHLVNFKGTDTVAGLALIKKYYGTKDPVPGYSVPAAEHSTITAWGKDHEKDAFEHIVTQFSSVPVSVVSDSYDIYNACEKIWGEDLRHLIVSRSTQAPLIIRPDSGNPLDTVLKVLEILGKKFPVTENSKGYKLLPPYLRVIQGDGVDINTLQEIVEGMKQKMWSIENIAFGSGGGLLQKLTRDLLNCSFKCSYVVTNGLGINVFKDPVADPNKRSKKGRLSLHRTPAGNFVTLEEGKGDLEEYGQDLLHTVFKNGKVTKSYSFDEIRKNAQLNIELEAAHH

CN1CCC([S+]([O-])c2ccc(CNC(=O)c3cc4ccncc4o3)cc2)CC1 (stereo not drawn) [Example 379, N-[[4-[(1-methyl-4-piperidyl)sulfinyl]phenyl]methyl]furo[2,3-c]pyridine-2-carboxamide]
IC50 (NAMPT): 114 nM
IC50 (A2780 cells; Homo sapiens, A2780, 72 h): 41.4 nM

CCN1CCC([S+]([O-])c2ccc(CNC(=O)c3cc4ccncc4o3)cc2)CC1 (stereo not drawn) [Example 380, N-[[4-[(1-ethyl-4-piperidyl)sulfinyl]phenyl]methyl]furo[2,3-c]pyridine-2-carboxamide]
IC50 (NAMPT): 68.3 nM
IC50 (A2780 cells; Homo sapiens, A2780, 72 h): 499 nM

O=C(NCc1ccc([S+]([O-])C2CCN(C3CCOCC3)CC2)cc1)c1cnc2[nH]ncc2c1 (stereo not drawn) [Example 381, N-[[4-[(1-tetrahydropyran-4-yl-4-piperidyl)sulfinyl]phenyl]methyl]-1H-pyrazolo[3,4-b]pyridine-5-carboxamide]
IC50 (NAMPT): 290 nM
IC50 (A2780 cells; Homo sapiens, A2780, 72 h): 201 nM

CCCN1CCC([S+]([O-])c2ccc(CNC(=O)c3cc4ccncc4o3)cc2)CC1 (stereo not drawn) [Example 382, N-[[4-[(1-propyl-4-piperidyl)sulfinyl]phenyl]methyl]furo[2,3-c]pyridine-2-carboxamide]
IC50 (NAMPT): 2000 nM
IC50 (A2780 cells): 2000 nM

CCCN1CCC([S@+]([O-])c2ccc(CNC(=O)c3cc4ccncc4o3)cc2)CC1 [Example 383, N-[[4-[(S)-(1-propyl-4-piperidyl)sulfinyl]phenyl]methyl]furo[2,3-c]pyridine-2-carboxamide]
IC50 (NAMPT): 35.7 nM
IC50 (A2780 cells): 6.46 nM

O=C(NCc1ccc([S+]([O-])C2CCN(C3CCOCC3)CC2)cc1)c1ccc2nccn2c1 (stereo not drawn) [Example 384, N-[[4-[(1-tetrahydropyran-4-yl-4-piperidyl)sulfinyl]phenyl]methyl]imidazo[1,2-a] pyridine-6-carboxamide]
IC50 (NAMPT): 36.2 nM
IC50 (A2780 cells; Homo sapiens, A2780, 72 h): 39.1 nM

CCN1CCC([S+]([O-])c2ccc(CNC(=O)N3Cc4ccncc4C3)cc2)CC1 (stereo not drawn) [Example 385, N-[[4-[(1-ethyl-4-piperidyl)sulfinyl]phenyl]methyl]-1,3-dihydropyrrolo[3,4-c]pyridine-2-carboxamide]
IC50 (NAMPT): 30.2 nM
IC50 (A2780 cells; Homo sapiens, A2780, 72 h): 56.7 nM

CC(C)N1CCC([S+]([O-])c2ccc(CNC(=O)c3cc4cnccc4[nH]3)cc2)CC1 (stereo not drawn) [Example 386, N-[[4-[(1-isopropyl-4-piperidyl)sulfinyl]phenyl]methyl]-1H-pyrrolo[3,2-c]pyridine-2-carboxamide]
IC50 (NAMPT): 60 nM
IC50 (A2780 cells; Homo sapiens, A2780, 72 h): 70.6 nM

Imidazo[1,2-a]pyridine-6- carboxylic acid 4-[4- (tetrahydro-pyran-4-yl)- piperazine-1-sulfonyl]- benzylamide [Example 59]
IC50 (NAMPT): 10.7 nM
IC50 (A2780 cells): 3 nM

cis-Imidazo[1,2- a]pyridine-6-carboxylic acid 4-[(3aR,6aS)- (tetrahydro-furo[3,4- c]pyrrol-5-yl)sulfonyl]- benzylamide [Example 71]
IC50 (NAMPT): 16.7 nM
IC50 (A2780 cells): 6.4 nM

tert-butyl 2-[4-[(imidazo[1,2- a]pyridine-6- carbonylamino)methyl]phenyl] sulfonyl-2,9- diazaspiro[4.5]decane-9- carboxylate [Example 242]
IC50 (NAMPT): 6.34 nM
IC50 (A2780 cells): 2.99 nM

tert-butyl 7-[4-[(imidazo[1,2- a]pyridine-6- carbonylamino)methyl]phenyl] sulfonyl-1,7- diazaspiro[4.4]nonane-1- carboxylate [Example 236]
IC50 (NAMPT): 13.3 nM
IC50 (A2780 cells): 1.79 nM

Reference: patent publication US10696692B2, “Amido-benzyl sulfone and sulfoxide derivates” (Forma TM, LLC, priority 2012, dated 2020)
